B1: IFNγ: cytokine interferon γ (protein, UniProt P01579 24-161, looked up)
Interferon gamma: QDPYVKEAENLKKYFNAGHSDVADNGTLFLGILKNWKEESDRKIMQSQIVSFYFKLFKNFKDDQSIQKSVETIKEDMNVKFFNSNKKKRDDFEKLTNYSVTDLNVQRKAIHELIQVMAELSPAAKTGKRKRSQMLFRG
B2: IL-4: cytokine interleukin 4 (protein, UniProt P05112 25-153, looked up)
Interleukin-4: HKCDITLQEIIKTLNSLTEQKTLCTELTVTDIFAASKNTTEKETFCRAATVLRQFYSHHEKDTRCLGATAQQFHRHKQLIRFLKRLDRNLWGLAGLNSCPVKEANQSTLENFLERLKTIMREKYSKCSS

Key:
mouse intersectin 2 gene = experiment: Intersectin 2 gene expression in ear tissue of DNFB-coated mouse allergic reaction model (TaqMan, ABI 7700); format: in vivo; settings: mouse ear tissue mRNA, day 6, corrected with 18S gene, value of CONT. taken as 1; four mice each; prednisolone oral day 0 to day 6
Experimental: Using a 2,4-dinitrofluorobenzene (DNFB) coated mouse as a model for an allergic reaction, changes in the expression level of the intersectin 2 gene in the mouse were observed. DNFB is a substance that is used as a hapten to cause allergic dermatitis reaction in a laboratory animal such as a mouse.
Day 0: The abdominal region was shaved by an electric clipper and 25 μL of the sensitizing solution was applied to the abdominal region.
Day 1: In a similar manner to the previous day, 25 μL of the sensitizing solution was applied to the abdominal region.
Day 5: 5 μL/ear of challenge solution was applied to both ears. […]
The expression level of the intersectin 2 gene was quantified by the TaqMan method (as mentioned above) using ABI 7700 and using mRNA sample extracted from the mouse ear tissue. […]
PCR was carried out using 25 μL of 2× Master Mix without UNG, 1.25 μL of 40×MultiScribe and RNase Inhibitor Mix, 0.25 μL of 10 μM primer, and 0.625 μL of 4 μM TaqMan Probe derived from One-step RT-PCR Master Mix Reagents (PE Biosystems), and RNA (2 ng)+DEPC resulting in total volume of 50 μL. […] To correct the differences of cDNA concentration among the samples, a similar quantitative analysis was performed on the 18S gene, and the value for the gene of interest was divided by the value for 18S, and indicated as taking the value of CONT. as 1. […]

[1] = tested on: "1835-17" (intersectin 2 gene); experiment: Change in gene expression in human peripheral blood eosinophils due to stimulation by cytokines (TaqMan, ABI 7700); format: cell-based; settings: eosinophils of a healthy subject, cytokine 0.1, 1 and 10 ng/ml, 3 hours culture, GAPDH corrected, FIG. 4
Experimental: The change in gene expression due to cytokine stimulation in eosinophils isolated from 100 ml of peripheral blood from a healthy subject was studied. Isolation of eosinophils was carried out as described above. Eosinophils were plated onto a 24-well plate (1×10^6 cells/mL). The plate was pre-coated with 1% BSA (immobilizing blocking buffer) at room temperature for 2 hours in order to prevent activation due to adhesion of eosinophils. As cytokines, 0.1, 1, and 10 ng/ml each of interleukin 5 (IL-5), interleukin 4 (IL-4), interferon γ (IFNγ), granulocyte macrophage colony stimulating factor (GM-CSF), and eotaxin were added to each well, and this was cultured for 3 hours in DMEM supplemented with 10% FCS. All of these cytokines are those considered to be related to activation of eosinophils and onset of allergies.
RNAs were prepared in the same manner as in Example 1 for each of the treated eosinophils, and were subjected to gene expression analysis. The primers, probes, and such used were the same as described above. The result at 3 hours after starting the culture is shown in FIG. 4 (value was corrected with GAPDH for the number of copies per 1 ng of RNA).

Row | Molecule | relative expression level of intersectin 2 gene (Average) (mouse intersectin 2 gene) | expression of "1835-17" (intersectin 2 gene) [1]
1 | O=[N+]([O-])c1ccc(F)c([N+](=O)[O-])c1 [DNFB, 2,4-dinitrofluorobenzene] | 2.04 | 
2 | C[C@]12C=CC(=O)C=C1CC[C@@H]1[C@@H]2[C@@H](O)C[C@@]2(C)[C@H]1CC[C@]2(O)C(=O)CO [S, prednisolone] | 1.04 | 
3 | IL-5: cytokine interleukin 5 |  | increases
4 | B1 |  | induced
5 | B2 |  | induced
